The record followed here is patent publication US11905230B2, “Phenoxyacetic acid derivatives, preparation method thereof and use thereof as medicament” (CHINA PHARMACEUTICAL UNIVERSITY, priority 2017, dated 2024).

The target of one data set is hGPR40 receptor (Homo sapiens (Human), UniProt O14842). Description: agonistic activity on hGPR40-CHO stably transfected cells (Fluo-4 / FLIPR). In kind it is cell-based. The settings on record: for activation at 0.1 µM: 100 nM, relative to linoleic acid well; for EC50: mean ± SD of three determinations. Here is the method:
Experimental example 1 The agonistic activity of the compounds of the present invention on hGPR40-CHO stably transfected cells
The present invention used the following method to determine the GPR40 agonistic activity of the compounds of the invention:
hGPR40-CHO stably transfected cells were seeded into a 96-well plate at a density of 3×10^4/well, and incubated overnight in a 37° C., 5% CO2 cell incubator; the medium was discarded, 100 μl of HBSS was added to each well, and 100 μl of Fluo-4 dye solution containing Probenecid was added and incubated at 37° C. for 90 min. After the incubation, the Fluo-4 dye solution was sucked out, 100 μl of HBSS buffer was added, and the dye was washed away; 100 μl of HBSS containing Probenecid was added to each well, and incubated at 37° C. for 10 min; different concentrations of drugs were added to each well of the 96-well plate and FLIPR (Molecular Devices) was used for readings according to the parameter setting table. The experimental results were analyzed.

A further data set has as its system normal mice. The data set can be described thus: Oral glucose tolerance test (OGTT) in normal mice. It counts as in vivo, Kunming mice. As to conditions: for effect on oral glucose tolerance in mice (in words): OGTT in normal mice, 20 mg/kg; for blood glucose level at 15 min / blood glucose level at 0 min / blood glucose level at 30 min / blood glucose level at 60 min / blood glucose level at 120 min: OGTT, 20 mg/kg by gavage, n = 8, in mmol/L (unit assumed); for blood glucose level at 15 min: 15 min after glucose load; for blood glucose level at 0 min: 30 min after dosing, before glucose load; for blood glucose level at 30 min: 30 min after glucose load; for blood glucose level at 60 min: 60 min after glucose load; for blood glucose level at 120 min: 120 min after glucose load. Here is the method: Experimental example 2 In vivo hypoglycemic activity of the compounds of the present invention can be determined by using an assay system as described below:
The mice were fasted for 12 hours before experiment and water was taken freely, each group was administrated by gavage, blood was taken from the tail, and the blood glucose level was measured (recorded as −30 min).

Data set [1] in a line: Evaluation of hepatotoxicity: serum ALT, AST and TBIL after 4 weeks of dosing. As to conditions: serum, once a day for consecutive 4 weeks; x ± SD, n = 6. It counts as in vivo. As for the experimental part:
Experimental example 3 Evaluation of hepatotoxicity of the compounds of the present invention:
The test compounds were administered once a day for consecutive 4 weeks, blood was taken, and the contents of alanine aminotransferase (ALT), aspartate aminotransferase (AST), and total bilirubin (TBIL) were measured.

hGPR40 receptor, sequence (O14842 whole entry): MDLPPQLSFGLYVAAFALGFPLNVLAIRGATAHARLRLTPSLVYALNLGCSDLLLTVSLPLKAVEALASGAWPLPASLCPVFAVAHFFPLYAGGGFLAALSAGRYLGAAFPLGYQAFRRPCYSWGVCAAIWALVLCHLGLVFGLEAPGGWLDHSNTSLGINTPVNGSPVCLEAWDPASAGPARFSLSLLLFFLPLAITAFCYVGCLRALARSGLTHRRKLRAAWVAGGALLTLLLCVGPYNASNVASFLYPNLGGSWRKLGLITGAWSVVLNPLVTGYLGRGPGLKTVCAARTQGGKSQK

For `Cc1noc(C)c1-c1cccc(CNc2ccc(OCC(=O)O)c(F)c2)c1` [Compound I-14, 2-(4-((3-(3,5-dimethylisoxazol-4-yl)benzyl)amino)-2-fluorophenoxy)acetic acid], the melting point (usually the temperature of the solid-liquid transition) lay within 72 to 73 °C. The same compound registered an activation at 0.1 µM at hGPR40 receptor of 54%.
Taken in the same sequence, the figures for `CCOCOc1cc(C)c(-c2cccc(CNc3ccc(OCC(=O)O)cc3)c2)c(C)c1` [Compound I-41, 2-(4-((4′-(2-ethoxymethoxy)-2′,6′-dimethyl-[1,1′-biphenyl]-3-methylene)amino)phenoxy)acetic acid] were 128 to 131 °C and 59%.
`O=C(O)COc1ccc(NCc2cccc(-c3ccccc3Cl)c2)cc1` [Compound I-24, 2-(4-((2′-chloro-[1,1′-biphenyl]-3-methylene)amino)phenoxy)acetic acid] returned a melting point of 124 to 126 °C. In the data set with normal mice, the “effect on oral glucose tolerance in mice (in words)” value is “significantly improve oral glucose tolerance”, the “blood glucose level at 15 min” value was 9.22 ± 0.57, the “blood glucose level at 0 min” value worked out at 4.39 ± 0.34 and the “blood glucose level at 30 min” value is listed as 8.04 ± 0.49. In the data set with normal mice, the “blood glucose level at 60 min” value is recorded as 5.29 ± 0.34 and the “blood glucose level at 120 min” value came to 4.33 ± 0.33. On hGPR40 receptor, the activation at 0.1 µM was 80% and a half-maximal effect (EC50) was put at 18.6 ± 2.7 nM. In data set [1], the “ALT (IU/L)” value was 52.68 ± 5.7 IU/L, the “AST (IU/L)” value came out at 116.78 ± 12.4 IU/L and the “TBIL (IU/L)” value is given as 2.56 ± 0.2 IU/L.
Regarding `COc1ccc(-c2cccc(CNc3ccc(OCC(=O)O)cc3)c2)c(C)c1` [Compound I-21], the melting point is 121 to 124 °C. The activation at 0.1 µM at hGPR40 receptor worked out at 75%.
`COCOc1cc(C)c(-c2cccc(CNc3ccc(OCC(=O)O)c(F)c3)c2)c(C)c1` [Compound I-38, 2-(2-fluoro-4-((4′-(2-methoxymethoxy)-2′,6′-dimethyl-[1,1′-biphenyl]-3-methylene)amino)phenoxy)acetic acid]: the melting point lay in the range of 136 to 138 °C. In addition, the activation at 0.1 µM on hGPR40 receptor came to 64%.
Taken in the same sequence, the figures for `Cc1cc(OC(F)(F)F)ccc1-c1cccc(CNc2ccc(OCC(=O)O)c(F)c2)c1` [Compound I-35, 2-(4-((4′-trifluoromethoxy-2′-methyl-[1,1′-biphenyl]-3-methylene)amino)2-fluorophenoxy)acetic acid] were 123 to 125 °C and 78%.
In the same order, the values of `O=C(O)COc1ccc(NCc2cccc(-c3ccccc3F)c2)cc1` [Compound I-26, 2-(4-((2′-fluoro-[1,1′-biphenyl]-3-methylene)amino)phenoxy)acetic acid] are 111 to 112 °C and 61%.
Taken in the same sequence, the figures for `CCOCCOc1cc(C)c(-c2cccc(CNc3ccc(OCC(=O)O)c(F)c3)c2)c(C)c1` [Compound I-36, 2-(2-fluoro-4-((4′-(2-ethoxyethoxy)-2′,6′-dimethyl-[1,1′-biphenyl]-3-methylene)amino)phenoxy)acetic acid] were 137 to 139 °C and 56%.
`COc1cc(C)c(-c2cccc(CNc3ccc(OCC(=O)O)cc3)c2)c(C)c1` [Compound I-18, 2-(4-((4′-methoxy-2′,6′-dimethyl-[1,1′-biphenyl]-3-methylene)amino)phenoxy)acetic acid] displayed a melting point of 131 to 134 °C. In addition, the activation at 0.1 µM on hGPR40 receptor came out at 65%.
In the same order, the values of `Cc1ccc(-c2cccc(CNc3ccc(OCC(=O)O)cc3)c2)c(Cl)c1` [Compound I-27, 2-(4-((2′-chloro-4′-methyl-[1,1′-biphenyl]-3-methylene)amino)phenoxy)acetic acid] are 111 to 114 °C and 69%.
The compound `CCOCCOc1cc(C)c(-c2cccc(CNc3ccc(OCC(=O)O)cc3)c2)c(C)c1` [Compound I-37, 2-(4-((4′-(2-ethoxyethoxy)-2′,6′-dimethyl-[1,1′-biphenyl]-3-methylene)amino)phenoxy)acetic acid] showed a melting point of 133 to 136 °C. This compound showed an activation at 0.1 µM on hGPR40 receptor of 50%.
Compound `COc1ccccc1-c1cccc(CNc2ccc(OCC(=O)O)c(F)c2)c1` [Compound I-6, 2-(4-((2′-methoxy-[1,1′-biphenyl]-3-methylene)amino)-2-fluorophenoxy)acetic acid] returned a melting point of 95 to 96 °C. At hGPR40 receptor, the activation at 0.1 µM amounted to 53%.
In the same order, the values of `CCOCOc1cc(C)c(-c2cccc(CNc3ccc(OCC(=O)O)c(F)c3)c2)c(C)c1` [Compound I-40, 2-(2-fluoro-4-((4′-(2-ethoxymethoxy)-2′,6′-dimethyl-[1,1′-biphenyl]-3-methylene)amino)phenoxy)acetic acid] are 136 to 139 °C and 63%.
For the compound `Cc1ccccc1-c1cccc(CNc2ccc(OCC(=O)O)cc2)c1` [Compound I-25, 2-(4-((2′-methyl-[1,1′-biphenyl]-3-methylene)amino)phenoxy)acetic acid], the melting point was 101 to 104 °C. For the same compound, in the data set on normal mice, the “effect on oral glucose tolerance in mice (in words)” value is “significantly improve oral glucose tolerance”, the “blood glucose level at 15 min” value was 8.47 ± 0.45, the “blood glucose level at 0 min” value is on record as 4.48 ± 0.39 and the “blood glucose level at 30 min” value amounted to 7.23 ± 0.39. Moreover, in the data set on normal mice, the “blood glucose level at 60 min” value is 5.11 ± 0.29 and the “blood glucose level at 120 min” value was 4.29 ± 0.39. At hGPR40 receptor, the activation at 0.1 µM was determined as 82% and a half-maximal effect (EC50) was put at 17.3 ± 3.3 nM. Further, in data set [1], the “ALT (IU/L)” value stood at 51.78 ± 4.5 IU/L, the “AST (IU/L)” value is 116.54 ± 8.9 IU/L and the “TBIL (IU/L)” value is listed as 2.69 ± 0.4 IU/L.
Turning to `Cc1cc(OC2CCCCC2)cc(C)c1-c1cccc(CNc2ccc(OCC(=O)O)c(F)c2)c1` [Compound I-44, 2(2-fluoro-4-(((4′-(cyclohexyloxy)-2′,6′-dimethyl-[1,1′-biphenyl]-3-yl)methyl)amino)phenoxy)acetic acid], the melting point lay within 136 to 138 °C.
Turning to `Cc1cc(OC(C)C)ccc1-c1cccc(CNc2ccc(OCC(=O)O)cc2)c1` [Compound I-23], the melting point was in the range of 132 to 135 °C. The same compound registered an activation at 0.1 µM at hGPR40 receptor of 62%.
For the compound `CCCCCCOc1cc(C)c(-c2cccc(CNc3ccc(OCC(=O)O)c(F)c3)c2)c(C)c1` [Compound I-42, 2(2-fluoro-4-(((4′-(hexyloxy)-2′,6′-dimethyl-[1,1′-biphenyl]-3-yl)methyl)amino)phenoxy)acetic acid], the melting point was 132 to 135 °C.
On to `N#Cc1ccccc1-c1cccc(CNc2ccc(OCC(=O)O)c(F)c2)c1` [Compound I-7, 2-(4-((2′-Nitrile-[1,1′-biphenyl]-3-methylene)amino)-2-fluorophenoxy)acetic acid], for which the melting point was in the range of 137 to 140 °C. The activation at 0.1 µM at hGPR40 receptor turned out to be 45%.
Take `O=C(O)COc1ccc(NCc2cccc(-c3ccccc3OC(F)(F)F)c2)cc1` [Compound I-32, 2-(4-((2′-trifluoromethoxy-[1,1′-biphenyl]-3-methylene)amino)phenoxy)acetic acid]: the melting point fell in the range of 107 to 110 °C. The compound also gave an activation at 0.1 µM at hGPR40 receptor of 46%.
In the same order, the values of `COCOc1cc(C)c(-c2cccc(CNc3ccc(OCC(=O)O)cc3)c2)c(C)c1` [Compound I-39, 2-(4-((4′-(2-methoxymethoxy)-2′,6′-dimethyl-[1,1′-biphenyl]-3-methylene)amino)phenoxy)acetic acid] are 132 to 134 °C and 60%.
Taken in the same sequence, the figures for `O=C(O)COc1ccc(NCc2cccc(-c3ccccc3OC(F)(F)F)c2)cc1F` [Compound I-33] were 111 to 113 °C and 50%.
Taken in the same sequence, the figures for `Cc1cc(OC(C)C)ccc1-c1cccc(CNc2ccc(OCC(=O)O)c(F)c2)c1` [Compound I-22] were 134 to 137 °C and 65%.
The compound `Cc1cc(OC(F)(F)F)cc(C)c1-c1cccc(CNc2ccc(OCC(=O)O)c(F)c2)c1` [Compound I-34, 2-(4-((4′-trifluoromethoxy-2′,6′-dimethyl-[1,1′-biphenyl]-3-methylene)amino)-2-fluorophenoxy)acetic acid] returned a melting point of 127 to 130 °C. Besides, on hGPR40 receptor, the activation at 0.1 µM is 64%.
